Source: patent publication US6859735B1, “Computer systems for identifying pathways of drug action” (priority 1998, dated 2005)

Columns and labels:
yeast gene YOL031C = assay: Transcript array gene expression response to graded methotrexate exposure, Hill function fit; type: cell-based, Saccharomyces cerevisiae
Description: In model fitting, the drug and pathway responses are interpolated by approximating each by a single parameterized function. An exemplary model-fitting function appropriate for approximating transcriptional state data is the Hill function, which has adjustable parameters a, u0, and n. [formula]
The adjustable parameters are selected independently for each cellular constituent of the drug response and for each cellular constituent of the pathway response. Preferably, the adjustable parameters are selected so that for each cellular constituent of each pathway response the sum of the squares of the distances of H(pi,l) from Ri,k(pi,l) is minimized, and so that for each cellular constituent of the drug response the sum of the squares of the distances of H(tl) from Dk(tl) is minimized. This preferable parameter adjustment method is known in the art as a least squares fit of H( ) to Ri,k( ) or to Dk( ). Other possible model functions are based on polynomial fitting, for example by various known classes of polynomials.
Model fitting with a Hill function is illustrated with respect to FIGS. 3 and 4. As discussed, FIG. 3 illustrates an example of a pathway perturbed by methotrexate and identified by measurement. This figure illustrates the mRNA expression levels of 30 genes of the yeast S. cerevisiae that, of the approximately 6000 genes in the genome of this yeast, had the largest expression changes in response to six different exposure levels of methotrexate. FIG. 4 illustrates a fit of the pathway response of one of these gene expression levels by a Hill function. […]
(§1) In all cases, polyA^+ RNA was isolated by oligo-dT cellulose chromatography using two selections by standard protocols (see, e.g., Sambrook et al. 1989, Molecular Cloning A Laboratory Manual, Cold Spring Harbor Laboratory Press). […] Extent of hybridization was determined by scanning with a prototype multi-frame CCD camera slides produced by Applied Precision, Inc. Images were processed by informatics and imported into the Inpharma database and analyzed using the MatLab data analysis package.

yeast = assay: Growth of yeast under methotrexate exposure; type: cell-based, Saccharomyces cerevisiae; details: 100 μm methotrexate titration
Experimental: To generate methotrexate dose response curves, an overnight starter culture of S.cerevisiae strain BY4741 (Genotype: Mat a his3Δ0 leu2D0 ura3Δ0 met15Δ0) was diluted into 200 ml of SC medium (see, e.g., Ausubel et al, ch. 13) to an OD600 of 0.1 and grown at 30° C. with 300 rpm shaking. After 30 min, methotrexate dissolved in water was added to cultures at final concentrations of 200, 100, 50, 25, 6.2, and 3.1 μM. Control cultures were treated with the same volume of water. The rest of the procedure was as above.

wild type yeast cells = details: at 10 micrograms/ml doxycycline, Gari et al. 1997; cited from earlier work
[1] = tested on: pathway originating at calcineurin; assay: Genome-wide correlation of FK506 expression responses against combined Cyc A and methotrexate pathway responses (scaling parameter); type: cell-based, Saccharomyces cerevisiae; details: location of the correlation peak versus scaling parameter applied to FK506 data
Experimental: The gene expression measurements illustrated in FIGS. 8A-C were made as detailed below. To generate the cyclosporin dose response curves, an overnight starter culture of S.cerevisiae strain R563 (Genotype: Mat a ura3-52 lys2-801 ade2-101 trpl-Δ63 his3-Δ200 leu2-Δ1 his3::HIS3) was diluted into 200 ml of YAPD plus 10 mM CaCl2 medium (see, e.g., Ausubel et al., eds., 1996, Current Protocols in Molecular Biology, John Wiley & Sons, Inc., especially ch. 13) to an OD600 of 0.1 and grown at 30° C. with 300 rpm shaking. After a 30 min, cyclosporin A dissolved in ethanol was added to cultures at final concentrations of 60, 30, 15, 6 and 3 μg/ml. Control cultures were treated with the same volume of just ethanol. Growth was monitored by OD600 and cells were harvested at OD600=1.4+/−0.1 by centrifugation for 2 min at ambient temperature in a Sorvall RC5C+centrifuge in a SLA-1500 rotor. […]
as §1, with “package. […]” for “package.”

Structure (SMILES): CN(Cc1cnc2nc(N)nc(N)c2n1)c1ccc(C(=O)N[C@@H](CCC(=O)O)C(=O)O)cc1 [methotrexate]
- Hill function parameter a (yeast gene YOL031C; least squares fit of YOL031C expression response (log expression ratio amplitude)): −0.61
- Hill function parameter n (yeast gene YOL031C; least squares fit of YOL031C expression response to six methotrexate exposure levels): 2
- Hill function parameter log10(u0) (yeast gene YOL031C; least squares fit of YOL031C expression response, methotrexate exposure levels 3-200 μm): 1.26
- growth defect (yeast): 50%

Structure (SMILES): C[C@H]1c2cccc(O)c2C(=O)C2=C(O)[C@]3(O)C(=O)C(C(N)=O)=C(O)[C@@H](N(C)C)[C@@H]3[C@@H](O)[C@@H]21 [doxycycline]
- effect on the growth rate (wild type yeast cells): no significant effect

Structure (SMILES): C=CC[C@@H]1/C=C(\C)C[C@H](C)C[C@H](OC)[C@H]2O[C@@](O)(C(=O)C(=O)N3CCCC[C@H]3C(=O)O[C@H](/C(C)=C/[C@@H]3CC[C@@H](O)[C@H](OC)C3)[C@H](C)[C@@H](O)CC1=O)[C@H](C)C[C@@H]2OC [FK506]
- approximate relative potency of FK506 and Cyc A [1]: approximately 63
